The values below are quoted from earlier work in US9388155B1, “Coumarin derivatives for cancer therapy” (Wellesley College, priority 2013, dated 2016).

The test system of this data set is pancreatic cancer cell line PANC-1. The following applies: PANC-1, nutrient starvation conditions, within 24 hours.

Take `CC(C)(OC(=O)C=Cc1ccc(O)cc1)C1Cc2c(ccc3ccc(=O)oc23)O1` (stereo not shown) [Angelmarin, 11-O-(p-hydroxy-cinnamoyl) columbianetin]: the cytotoxicity is 0.01 µg/mL.
